Values joined by “and” are separate entries in the source; they are usually repeats but may differ in a detail not shown here. Equal values may be shown once.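 96-well plates; 48 h exposure; 5 concentrations. Endpoints by linear interpolation between flanking doses. Not reached: highest tested concentration assigned. The concentration for 50% growth inhibition is given as GI50. TGI denotes the concentration required for complete inhibition of growth.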
These compounds were tested on DMS 114 small cell lung (assay: NCI tumour cell line growth inhibition, 48 h).
`Nc1ccccc1C(=O)/C=C/c1c(O)ccc2ccccc12` showed a TGI of over 100 µM. In the case of `CC(C(=O)c1ccc(Cl)cc1)/C(=N/NC(=O)NN)C(=O)Nc1cccc(C(F)(F)F)c1` (stereo not given), the TGI is reported as over 100 µM. For `CCOP(=O)(OCC)C(C(=O)OC)C(=O)C(=O)Nc1ccc(Cl)cc1Cl` (stereo not given), the TGI was over 100 µM. `CC(C)=C1CCC(CN(C)C)C1=O` (stereo not given) gave a TGI of 38.4 µM. Work on `COc1cccc(/C=N/[N-]C(=O)c2ccncc2)c1[O-].COc1cccc(/C=N/[N-]C(=O)c2ccncc2)c1[O-].[O]=[U](=[O])([OH2+])[OH2+]` yielded a GI50 of 3.3 µM and a TGI of 12.5 µM. `ClC(Cl)=C1C(=C(Cl)Cl)C(Cl)(Cl)C1(Cl)Cl` gave a TGI of 2.33 µM. Work on `CC(C)(C)c1ccc2c(c1)S(=O)(=O)Nc1ccc(Cl)cc1NS(=O)(=O)c1cc(C(C)(C)C)ccc1OCCOCCOCCO2` yielded a TGI of over 100 µM. Compound `CO[C@H]1Nc2c(ccc(C)c2O)C(=O)N2C=C(/C=C/C(N)=O)C[C@@H]12` has a TGI of 0.044 µM. With `CCNC(=O)/C(=C/c1ccc(OC)cc1)c1cc(OC)c(OC)c(OC)c1` the TGI was over 57 µM. `N#CC(=Nc1ccccc1N(C(=O)c1ccccc1)C(=O)c1ccccc1)c1ccccc1` gave a TGI of over 48.8 µM. `COc1c(C)n(CCO)ccc1=O` showed a TGI of over 100 µM. Compound `COC(=O)C(=O)C(C(C)=O)C(=O)NCc1ccc(OC)c(OC)c1` (stereo not given) has a TGI of over 100 µM. Compound `Nc1c(-c2ccccc2-c2c(N)[n+]([O-])c3ccccc3[n+]2[O-])[n+]([O-])c2ccccc2[n+]1[O-]` has a TGI of 27.2 µM. Work on `CCOC(=O)NC(=O)c1cn(C(CC)COC(=O)NCCCCCCNC(=O)OCC(CC)n2cc(C(=O)NC(=O)OCC)c(=O)[nH]c2=O)c(=O)[nH]c1=O` (stereo not given) yielded a TGI of over 100 µM. Work on `O=C(CC(=O)C1CCOC1=O)C(=O)Nc1cccc(Cl)c1` (stereo not given) yielded a TGI of over 100 µM. `CCN1c2ccccc2-c2c3c1cc(C)cc3c1ccccc1[n+]2CC` gave a TGI of 5.84 µM. `Cc1cccc(C2=C/C(=C(\SS/C(C(=O)c3ccc(OCC(=O)O)c(Cl)c3Cl)=C3\C=C(c4cccc(C)c4)SS3)C(=O)c3ccc(OCC(=O)O)c(Cl)c3Cl)SS2)c1` showed a TGI of 17.7 µM. `CC(=O)N1CCN(c2ccc(OCC3COC(Cn4ccnc4)(c4ccc(Cl)cc4Cl)O3)cc2)CC1` (stereo not given) was tested, and the TGI was 43.7 µM. Work on `CC1=C(C#N)C(=O)CC(c2ccc(Cl)cc2)N(C)N1` (stereo not given) yielded a TGI of over 100 µM. In the case of `Nc1nc(-c2ccc(Cl)c([N+](=O)[O-])c2)cs1`, the TGI is reported as over 100 µM. With `CN(C)C(=S)SSC(=S)N(C)C` the TGI was 17.4 µM. Compound `O=C(N/C(=C\c1ccc([N+](=O)[O-])cc1)c1nc2ccccc2[nH]1)c1ccccc1` has a TGI of over 100 µM. `COC(=O)/C([Se]c1c(C)cc(C)cc1C)=C(/[Se]c1c(C)cc(C)cc1C)C(=O)OC` showed a TGI of over 100 µM. In the case of `NC(=O)C(=O)CC(=O)c1ccccc1NC1=CC(=O)C(=O)c2ccccc21`, the TGI is reported as 68.2 µM. Work on `Cc1cc2c(c(C(N)=O)c1C)-c1ccccc1C2=O` yielded a TGI of over 100 µM. For `Cc1[nH]c2ccccc2c1C1Cc2ccccc2N1C(=O)C#Cc1ccc([N+](=O)[O-])cc1` (stereo not given), the TGI was over 100 µM. `Cn1c(=O)nc2n(-c3cc(C(F)(F)F)cc(C(F)(F)F)c3)c3ccccc3nc-2c1=O` was tested, and the TGI was over 100 µM.

The compounds below were run on RXF-631 renal (assay: NCI tumour cell line growth inhibition, 48 h).
`Nc1ccccc1C(=O)/C=C/c1c(O)ccc2ccccc12` gave a TGI of over 100 µM. `CCC1CN2CCc3cc(OC)c(OC)cc3C2CC1CC1c2cc(OC)c(OC)cc2CCN1C(=O)C1CCCN1` (stereo not given) showed a TGI of 90.8 µM. In the case of `CC(C(=O)c1ccc(Cl)cc1)/C(=N/NC(=O)NN)C(=O)Nc1cccc(C(F)(F)F)c1` (stereo not given), the TGI is reported as over 100 µM. With `CC(C)=C1CCC(CN(C)C)C1=O` (stereo not given) the TGI was over 100 µM. For `ClC(Cl)=C1C(=C(Cl)Cl)C(Cl)(Cl)C1(Cl)Cl`, the TGI was 13.9 µM. With `CCNC(=O)/C(=C/c1ccc(OC)cc1)c1cc(OC)c(OC)c(OC)c1` the TGI was over 100 µM. In the case of `COc1c(C)n(CCO)ccc1=O`, the TGI is reported as over 100 µM. `COC(=O)C(=O)C(C(C)=O)C(=O)NCc1ccc(OC)c(OC)c1` (stereo not given) showed a TGI of over 100 µM. With `O=C(CC(=O)C1CCOC1=O)C(=O)Nc1cccc(Cl)c1` (stereo not given) the TGI was over 100 µM. `CCN1c2ccccc2-c2c3c1cc(C)cc3c1ccccc1[n+]2CC` gave a TGI of 43.4 µM. `Nc1nc(-c2ccc(Cl)c([N+](=O)[O-])c2)cs1` showed a TGI of over 100 µM. With `CN(C)C(=S)SSC(=S)N(C)C` the TGI was over 100 µM. In the case of `O=C(N/C(=C\c1ccc([N+](=O)[O-])cc1)c1nc2ccccc2[nH]1)c1ccccc1`, the TGI is reported as over 100 µM. Compound `COC(=O)/C([Se]c1c(C)cc(C)cc1C)=C(/[Se]c1c(C)cc(C)cc1C)C(=O)OC` has a TGI of over 100 µM. In the case of `NC(=O)C(=O)CC(=O)c1ccccc1NC1=CC(=O)C(=O)c2ccccc21`, the TGI is reported as over 100 µM. Work on `Cc1cc2c(c(C(N)=O)c1C)-c1ccccc1C2=O` yielded a TGI of over 100 µM. Compound `Cc1ccccc1C1=[N+]([O-])c2ccc(Cl)cc2C1=O` has a TGI of 16.8 µM. `CCOC(=O)NC(=O)c1cn(C2CCCCC2)c(=O)[nH]c1=O` gave a TGI of over 100 µM.

The compounds below were run on MDA-N (assay: NCI tumour cell line growth inhibition, 48 h).
With `COC(=O)C1=COC(C)C2CN3CCc4c([nH]c5ccccc45)C3CC12` (stereo not given) the GI50 was 31.6 µM and > 100 µM and the TGI was over 100 µM. Work on `COC(c1ccc(C(C)(C)C)cc1)(c1ccc(C(C)(C)C)cc1)c1ccc(C(C)(C)C)cc1` yielded a TGI of over 100 µM. In the case of `CCC(C)(O)c1cnc(CC(C)C)c(=O)n1O` (stereo not given), the TGI is reported as over 100 µM. `O=C(/C=C/c1ccccc1)c1ccccc1` was tested, and the TGI was over 10 µM. With `ClC(Cl)=C1C(=C(Cl)Cl)C(Cl)(Cl)C1(Cl)Cl` the TGI was 2.81 µM. `CO[C@H]1Nc2c(ccc(C)c2O)C(=O)N2C=C(/C=C/C(N)=O)C[C@@H]12` was tested, and the TGI was 0.0283 µM. With `COc1ccc(C(=O)c2cc(OC)c(OC)c(OC)c2)cc1OC` the TGI was over 100 µM. Work on `CCNC(=O)/C(=C/c1ccc(OC)cc1)c1cc(OC)c(OC)c(OC)c1` yielded a TGI of 4.26 µM. Compound `CN(C)CCNCCN` has a TGI of over 100 µM. For `COC(=O)c1cc2c(o1)-c1nccc3c1c(nc1ccccc13)C2=O`, the GI50 was 0.691 µM and the TGI was 2.22 µM. With `Nc1ccccc1O.O.O=C(O)C1[O][Sb][O]C1C(=O)O` (stereo not given) the GI50 was 17.4 µM and the TGI was 42.2 µM.

— PubChem BioAssay (NCI)
